Laboratory results from PubChem BioAssay AID248 (DTP/NCI, 2004).
“And” between values parts separate entries of the source, which are not always exact repeats. Equal entries are not always repeated. Inconclusive results and toxic doses are left out.

Tested on: L1210 leukemia ip in BDF1 mice, survival T/C
Assay: NCI In Vivo Anticancer Drug Screen. Data for tumor model L1210 Leukemia (intraperitoneal) in B6D2F1 (BDF1) mice
Settings: endpoint: mean survival time, higher = longer survival
Procedure, shortened: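 In this screen, tumor-bearing mice given compound are compared to those given vehicle, and their survival values are reported as a treated-to-control quotient.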

[1] = dose: 100.0 mg/kg/injection, schedule: Q04DX003 (ip), vehicle: Klucel (hydroxypropylcellulose) (HPC)
[2] = dose: 200.0 mg/kg/injection, schedule: Q04DX003 (ip), vehicle: Klucel (hydroxypropylcellulose) (HPC)
[3] = dose: 100.0 mg/kg/injection, schedule: Q01DX009 (ip), vehicle: Klucel (hydroxypropylcellulose) (HPC)
[4] = dose: 100.0 mg/kg/injection, schedule: Q04DX003 (ip), vehicle: saline
[5] = dose: 200.0 mg/kg/injection, schedule: Q04DX003 (ip), vehicle: saline
[6] = dose: 400.0 mg/kg/injection, schedule: Q04DX003 (ip), vehicle: saline
[7] = dose: 100.0 mg/kg/injection, schedule: Q04DX003 (ip), vehicle: saline with Tween-80
[8] = dose: 200.0 mg/kg/injection, schedule: Q04DX003 (ip), vehicle: saline with Tween-80
[9] = dose: 400.0 mg/kg/injection, schedule: Q04DX003 (ip), vehicle: saline with Tween-80
[10] = dose: 200.0 mg/kg/injection, schedule: Q01DX009 (ip), vehicle: Klucel (hydroxypropylcellulose) (HPC)
[11] = dose: 400.0 mg/kg/injection, schedule: Q01DX009 (ip), vehicle: Klucel (hydroxypropylcellulose) (HPC)

Compound: CCOC(=O)N1CCc2nc3ccccc3cc21
- T/C (dose: 50.0 mg/kg/injection, schedule: Q01DX009 (ip), vehicle: other): 100 % of control
- T/C (dose: 100.0 mg/kg/injection, schedule: Q01DX009 (ip), vehicle: other): 90 % of control
- T/C (dose: 200.0 mg/kg/injection, schedule: Q01DX009 (ip), vehicle: other): 93 % of control

Compound: COC(=O)c1cccc(F)c1C(=O)c1ccc2ccccc2c1
- T/C [1]: 100 % of control
- T/C [2]: 91 % of control
- T/C (dose: 400.0 mg/kg/injection, schedule: Q04DX003 (ip), vehicle: Klucel (hydroxypropylcellulose) (HPC)): 97 % of control

Compound: Cc1cc(C(=O)O)c2cc(Br)ccc2n1
- T/C (dose: 25.0 mg/kg/injection, schedule: Q01DX009 (ip), vehicle: Klucel (hydroxypropylcellulose) (HPC)): 100 % of control
- T/C (dose: 50.0 mg/kg/injection, schedule: Q01DX009 (ip), vehicle: Klucel (hydroxypropylcellulose) (HPC)): 98 % of control
- T/C [3]: 96 % of control

Compound: Clc1nc(Cl)nc(SCCSc2nc(Cl)nc(Cl)n2)n1
- T/C [4]: 97 % of control
- T/C [5]: 110 % of control
- T/C [6]: 98 % of control

Compound: CC(=O)Nc1ccc(C(=O)NNC2=C(NNC(=O)c3ccc(NC(C)=O)cc3)C(=O)c3ccccc3C2=O)cc1
- T/C (dose: 75.0 mg/kg/injection, schedule: Q04DX003 (ip), vehicle: saline): 100 % of control
- T/C (dose: 150.0 mg/kg/injection, schedule: Q04DX003 (ip), vehicle: saline): 91 % of control
- T/C (dose: 300.0 mg/kg/injection, schedule: Q04DX003 (ip), vehicle: saline): 91 % of control

Compound: CCCCN(CCCC)CC(O)c1cnc2c(Cl)cc(Cl)cc2c1Cl (stereo not given)
- T/C (dose: 100.0 mg/kg/injection, schedule: Q01DX009 (ip), vehicle: saline with Tween-80): 101 % of control
- T/C [7]: 100 % of control
- T/C (dose: 200.0 mg/kg/injection, schedule: Q01DX009 (ip), vehicle: saline with Tween-80): 102 % of control
- T/C [8]: 102 % of control
- T/C [9]: 108 % of control

Compound: O=C1N(c2ccccc2)C(=O)N1c1ccccc1
- T/C [1]: 93 % of control
- T/C [2]: 96 % of control

Compound: NC(Cc1cn(Cc2ccccc2)cn1)C(=O)O (stereo not given)
- T/C (dose: 12.5 mg/kg/injection, schedule: Q04DX003 (ip), vehicle: saline): 109 % of control
- T/C (dose: 25.0 mg/kg/injection, schedule: Q04DX003 (ip), vehicle: saline): 89 % of control
- T/C (dose: 50.0 mg/kg/injection, schedule: Q04DX003 (ip), vehicle: saline): 106 % of control

Compound: CCC(C#N)C(=O)NC(N)=O (stereo not given)
- T/C [4]: 97 % of control
- T/C [5]: 92 % of control
- T/C [6]: 91 % of control

Compound: O=C(O)C(Cc1ccc(O)cc1)NC(=O)C(CSC(c1ccccc1)(c1ccccc1)c1ccccc1)NC(c1ccccc1)(c1ccccc1)c1ccccc1 (stereo not given)
- T/C (dose: 50.0 mg/kg/injection, schedule: Q01DX009 (ip), vehicle: saline): 92 % of control
- T/C (dose: 100.0 mg/kg/injection, schedule: Q01DX009 (ip), vehicle: saline): 95 % of control
- T/C (dose: 200.0 mg/kg/injection, schedule: Q01DX009 (ip), vehicle: saline): 100 % of control
- T/C (dose: 400.0 mg/kg/injection, schedule: Q01DX009 (ip), vehicle: saline): 95 % of control

Compound: N#CCCO
- T/C (dose: 25.0 mg/kg/injection, schedule: Q04DX002 (ip), vehicle: saline): 98 % of control
- T/C (dose: 50.0 mg/kg/injection, schedule: Q04DX002 (ip), vehicle: saline): 101 % of control
- T/C (dose: 100.0 mg/kg/injection, schedule: Q04DX002 (ip), vehicle: saline): 110 % of control and 121 % of control
- T/C (dose: 200.0 mg/kg/injection, schedule: Q04DX002 (ip), vehicle: saline): 96 % of control
- T/C (dose: 400.0 mg/kg/injection, schedule: Q04DX002 (ip), vehicle: saline): 108 % of control

Compound: CC1CC(C)(C)OC(C(C)C)O1 (stereo not given)
- T/C (dose: 50.0 mg/kg/injection, schedule: Q01DX009 (ip), vehicle: acetone): 100 % of control
- T/C (dose: 75.0 mg/kg/injection, schedule: Q01DX001 (ip), vehicle: acetone): 95 % of control
- T/C (dose: 100.0 mg/kg/injection, schedule: Q01DX009 (ip), vehicle: acetone): 97 % of control
- T/C (dose: 150.0 mg/kg/injection, schedule: Q01DX001 (ip), vehicle: acetone): 92 % of control
- T/C (dose: 200.0 mg/kg/injection, schedule: Q01DX009 (ip), vehicle: acetone): 94 % of control
- T/C (dose: 300.0 mg/kg/injection, schedule: Q01DX001 (ip), vehicle: acetone): 87 % of control

Compound: CCOC(=O)C(Cc1ccc2ccccc2n1)C(C)=O (stereo not given)
- T/C (dose: 50.0 mg/kg/injection, schedule: Q01DX009 (ip), vehicle: DMSO): 86 % of control
- T/C (dose: 100.0 mg/kg/injection, schedule: Q01DX009 (ip), vehicle: DMSO): 102 % of control

Compound: NC(=O)Cn1cnc2c(Cl)ncnc21
- T/C [7]: 104 % of control
- T/C [8]: 102 % of control
- T/C [9]: 120 % of control

Compound: Clc1ccccc1Nc1c2ccccc2nc2ccccc12
- T/C [4]: 100 % of control
- T/C [5]: 102 % of control
- T/C [6]: 96 % of control

Compound: C[n+]1ccc(/C=C/c2c(Cl)cccc2Cl)c2ccccc21
- T/C (dose: 3.13 mg/kg/injection, schedule: Q04DX003 (ip), vehicle: Klucel (hydroxypropylcellulose) (HPC)): 94 % of control
- T/C (dose: 6.25 mg/kg/injection, schedule: Q04DX003 (ip), vehicle: Klucel (hydroxypropylcellulose) (HPC)): 98 % of control
- T/C (dose: 12.5 mg/kg/injection, schedule: Q04DX003 (ip), vehicle: Klucel (hydroxypropylcellulose) (HPC)): 93 % of control

Compound: CC(C)C1C(=O)N2CCCC2C2(O)OC(C(=O)NCCc3ccccc3)(C(C)C)C(=O)N12 (stereo not given)
- T/C (dose: 25.0 mg/kg/injection, schedule: Q04DX003 (ip), vehicle: alcohol): 98 % of control
- T/C (dose: 50.0 mg/kg/injection, schedule: Q04DX003 (ip), vehicle: alcohol): 105 % of control and 100 % of control
- T/C (dose: 100.0 mg/kg/injection, schedule: Q04DX003 (ip), vehicle: alcohol): 100 % of control and 104 % of control
- T/C (dose: 200.0 mg/kg/injection, schedule: Q04DX003 (ip), vehicle: alcohol): 100 % of control and 102 % of control
- T/C (dose: 400.0 mg/kg/injection, schedule: Q04DX003 (ip), vehicle: alcohol): 93 % of control

Compound: NC(N)=NCC1COc2ccccc2O1 (stereo not given)
- T/C (dose: 25.0 mg/kg/injection, schedule: Q01DX001 (ip), vehicle: carboxymethylcellulose (CMC)): 103 % of control
- T/C (dose: 50.0 mg/kg/injection, schedule: Q01DX001 (ip), vehicle: carboxymethylcellulose (CMC)): 106 % of control
- T/C (dose: 100.0 mg/kg/injection, schedule: Q01DX001 (ip), vehicle: carboxymethylcellulose (CMC)): 108 % of control

Compound: O=C(Cl)C12CCC(CC1)C1CCC2CC1
- T/C [4]: 86 % of control
- T/C [5]: 92 % of control
- T/C [6]: 97 % of control

Compound: COc1ccc(/C=C/c2cnccn2)cc1OC
- T/C [3]: 101 % of control
- T/C [10]: 101 % of control
- T/C [11]: 106 % of control

Compound: Cc1cc(SC#N)ncn1
- T/C (dose: 5.0 mg/kg/injection, schedule: Q01DX001 (ip), vehicle: saline): 98 % of control
- T/C (dose: 10.0 mg/kg/injection, schedule: Q01DX001 (ip), vehicle: saline): 101 % of control

Compound: COC1NC(=O)NC(=O)C1=[N+]=[N-] (stereo not given)
- T/C (dose: 5.0 mg/kg/injection, schedule: Q04DX003 (ip), vehicle: saline with Tween-80): 115 % of control
- T/C (dose: 6.6 mg/kg/injection, schedule: Q01DX009 (ip), vehicle: saline with Tween-80): 150 % of control
- T/C (dose: 10.0 mg/kg/injection, schedule: Q01DX009 (ip), vehicle: saline with Tween-80): 170 % of control
- T/C (dose: 10.0 mg/kg/injection, schedule: Q04DX003 (ip), vehicle: saline with Tween-80): 118 % of control
- T/C (dose: 15.0 mg/kg/injection, schedule: Q01DX009 (ip), vehicle: saline with Tween-80): 163 % of control

Compound: CCN(CC)C(=S)SC(=S)N(CC)CC
- T/C (dose: 100.0 mg/kg/injection, schedule: Q04DX002 (ip), vehicle: gum acacia): 103 % of control
- T/C (dose: 200.0 mg/kg/injection, schedule: Q04DX002 (ip), vehicle: gum acacia): 103 % of control
- T/C (dose: 400.0 mg/kg/injection, schedule: Q04DX002 (ip), vehicle: gum acacia): 89 % of control

Compound: Cc1ccc(NC(=O)OCC2CC3C=CC2C3)cc1NC(=O)OCC1CC2C=CC1C2 (stereo not given)
- T/C [3]: 87 % of control
- T/C [10]: 90 % of control
- T/C [11]: 90 % of control

Compound: Brc1ccc2c(c1)CCC2
- T/C (dose: 50.0 mg/kg/injection, schedule: Q01DX001 (ip), vehicle: saline): 93 % of control
- T/C (dose: 100.0 mg/kg/injection, schedule: Q01DX001 (ip), vehicle: saline): 106 % of control and 88 % of control
- T/C (dose: 200.0 mg/kg/injection, schedule: Q01DX001 (ip), vehicle: saline): 94 % of control and 95 % of control
- T/C (dose: 400.0 mg/kg/injection, schedule: Q01DX001 (ip), vehicle: saline): 97 % of control and 98 % of control
